Legend:
Format in all cases: in vivo, human
[1] = tested on: subjects with fibromyalgia; assay: Fibromyalgia Survey Questionnaire (Widespread Pain Index, Symptom Severity Score)
Excerpt: As used herein, “FSQ” is Fibromyalgia Survey Questionnaire, which is a patient-reported tool to assess the 2011 ACR Fibromyalgia criteria circumventing the requirement of physician assessment. The criteria review the widespread pain index, and somatic symptoms. The somatic symptoms of fatigue, waking unrefreshed, and cognitive symptoms were scored from 0 (no problem) to 3 (severe, pervasive, continuous, life disturbing problems). Symptoms of headaches, pain or cramps in the lower abdomen, and depression were given a score of 1, if they had occurred in the past 3 months.
As used herein, “WPI” is the Widespread Pain Index, which is a score comprised of 19 areas where subjects experienced pain within the last week with a yes or no response for each area. Each individual yes response has a numeric value of 1 and 0 is assigned to each no response. The WPI score had values ranging from 0 to 19. If any of the individual area responses were missing, the WPI score was not calculated. Here are the 19 areas that were assessed: Left Jaw, Right Jaw, Left Shoulder, Right Shoulder, Right Upper Arm, Left Upper Arm, Right Lower Arm, Left Lower Arm, Neck, Upper Back, Chest, Abdomen, Lower Back, Right Hip, Left Hip, Right Upper Leg, Left Upper Leg, Right Lower Leg, and Left Lower Leg.
As used herein, “SS” is the Symptom Severity Score, based on 3 questions each having a numeric score ranging from 0 to 3 and an additional 3 questions each having a numeric score of 0 or 1. If all 6 questions were given a numeric score, then the Symptom Severity Score ranged from 0 to 12. If any of the individual scores were missing, the Symptom Severity Score was not calculated.
As used herein, “ACR Fibromyalgia Criteria” is 2011 American College of Rheumatology Fibromyalgia Criteria, and includes FSQ, WPI, and SS. These assessments were analyzed at Day 1, Week 2, Week 4, Week 6, and Follow-up (Week 7). Both the observed Widespread Pain Index score and Symptom Severity Score, changes from baseline, and changes from treatment periods were summarized using descriptive statistics. Additionally, the treatment group comparisons were analyzed using the paired t-test and nonparametric Wilcoxon signed-rank test. A frequency distribution table was presented for yes/no responses for these categories: • Widespread Pain Index ≥7 and Symptom Severity Score >5 • Widespread Pain Index is 3 to 6 and the Symptom Severity Score is >9

[2] = tested on: subjects with fibromyalgia; assay: PROMIS Physical Function short form
Excerpt: As used herein, the “PROMIS Physical Function short form” is Patient Reported Outcomes Measurement Information System Physical Function Short Form. The PROMIS physical function short form version 1.0 12a measures the self-reported performance of physical activities including dexterity, walking or mobility and the ability to complete activities of daily living. All 12 questions are based on a 5-point numerical rating scale/Likert scale ranging from 1 to 5 with different categorical responses. Higher scores represent a better quality of life. The PROMIS physical function is made of the 2 following subdomains: • Walking Subdomain Score • If the question, “Can you walk 25 feet on a level surface (with or without support)?” is answered yes, then 6 questions will be assessed. Otherwise, the Walking Subdomain Score will not be calculated. 4 Questions with Scores Ranging from 1 (Unable to do) to 5 (Without any difficulty): • Are you able to walk on flat ground? • Are you able to walk up and down two steps? • Are you able to run at a fast pace for 2 miles? • Are you able to do yard work like raking leaves, weeding, or pushing a lawn mower? 2 Questions with Scores Ranging from 1 (Cannot do) to 5 (Not at all): • Does your health now limit you in doing strenuous activities such as backpacking, skiing, playing tennis, bicycling, or jogging? • Does your health now limit you in hiking a couple of miles on uneven surfaces, including hills? • Sum of those 6 Questions make up the Walking Subdomain Score Ranging from 6 to 30 • Other Physical Function Subdomain Score 5 Questions with Scores Ranging from 1 (Unable to do) to 5 (Without any difficulty): • Are you able to wash and dry your body? • Are you able to get in and out of bed? • Are you able to bend down and pick up clothing from the floor? • Are you able to push open a heavy door? • Are you able to reach and get down an object (such as a can of soup) from above your head? 1 Question with Scores Ranging from 1 (Cannot do) to 5 (Not at all): • Does your health now limit you in doing eight hours of physical labor? • Sum of those 6 Questions make up the Other Physical Function Subdomain Score Ranging from 6 to 30
If at least 3 questions have been answered within an individual subdomain, that subdomain score may be imputed if missing responses are present. […] A total score for PROMIS physical function was not calculated. The PROMIS physical function assessment was collected and analyzed at visits Screening, Day 1, Week 2, Week 4, Week 6, and Follow-up (Week 7). […] Additionally, the treatment group comparisons were analyzed using the paired t-test and nonparametric Wilcoxon signed-rank test. All PROMIS physical function data collected and the calculated subdomain scores at each visit were presented in a subject listing.

[3] = tested on: subjects with fibromyalgia; assay: Safety evaluation in the fibromyalgia study; settings: 20 mg then 200 mg PO QD, 2 weeks each
Excerpt: Adverse events (AEs), vital signs, electrocardiograms, physical examinations, Columbia Suicide Rating Scales, and clinical laboratory samples were collected throughout the study.
• Adverse events • Vital sign measurements • Clinical laboratory test results • Electrocardiogram results • Physical examination findings • Columbia-Suicide Severity Rating Scale (C-SSRS)

[4] = Week 2 (placebo) to Week 4 (NYX-2925 20 mg), not statistically significant
[5] = Week 2 (placebo) to Week 6 (NYX-2925 200 mg), not statistically significant
[6] = Week 2 (placebo) to Week 4 (NYX-2925 20 mg)

CC(C)C(=O)N1CCC[C@]12CN([C@H](C(N)=O)[C@@H](C)O)C2=O [NYX-2925, (2S, 3R)-3-hydroxy-2-((R)-5-isobutyryl-1-oxo-2,5-diazaspiro[3.4]octan-2-yl)butanamide] was tested, and the “Symptom Severity score, mean change” value [1, 4] was −0.3, the “Widespread Pain Index, mean change” value [1, 4] was 0.0 and the “Widespread Pain Index, mean change” value [1, 5] was −1.3. For the same compound, the “Symptom Severity score, mean change” value ([1]; Week 2 (placebo) to Week 6 (NYX-2925 200 mg), statistically significant) was −0.9, the “PROMIS Physical Function Other Physical Function Subdomain score, mean change” value [2, 6] was −0.1 and the “PROMIS Physical Function Walking Subdomain score, mean change” value [2, 6] was 0.2. For the same compound, the “PROMIS Physical Function Other Physical Function Subdomain score, mean change” value [2, 5] was 0.4, the “PROMIS Physical Function Walking Subdomain score, mean change” value [2, 5] was 0.5 and the “discontinuations due to treatment-emergent adverse events (TEAE)” value [3] was “no discontinuations”. The safety and tolerability [3] was “safe and well tolerated” and the serious adverse events [3] was “No serious adverse events”.

Source: US20210308101A1, “METHODS OF TREATING FIBROMYALGIA” (Aptinyx Inc., priority 2019, published 2021)
